{"source": "patent EP0184990A1", "about": "“Alkylidenedioxy compounds” (CIBA-GEIGY AG, priority 1984, dated 1986)", "key": {"[1]": {"test": "Maximum tolerated dose in mice after single administration", "set-up": "species or system Mäusen", "details": "mouse, in vivo, 7-day observation, read-out: maximal tolerierte Dosis", "method": "Die pharmakologische Wirksamkeit der Verbindungen der vorliegenden Erfindung ist begleitet von einer guten Verträglichkeit. So liegt die maximal tolerierte Dosis für das obengenannte 6,6-Dimethyl-4,5-dihydro-6H-(1,3-dioxolo)r3,41naphthor1,2-blpyran in Mäusen nach einmaliger p.o- und i.p.-Verabreichung und anschliessender 7-tägiger Beobachtungsdauer über 2500 mg/kg bzw. über 1250 mg/kg."}, "[2]": {"tested_on": "Rauscher-Leukämie-Virus (RLV, ein RNS-Tumorvirus)", "test": "Rauscher leukaemia virus infection in mice, survival time", "assay_type": "in vivo, weibliche Balb/c-Mäuse", "details": "20 p.o. administrations of 125 mg/kg each, female Balb/c mice infected with Rauscher leukaemia virus; controls 31,7 Tage (p < 0,001 Cox-Test)", "text": "Die Wirkung auf Virusinfektionen kann anhand von in vivo-Testanordnungen festgestellt werden. So besitzen Verbindungen der Formel I in Tierexperimenten bei gewissen neoplastischen Krankheiten, die durch RNS-Tumorviren hervorgerufen werden, oder bei denen RNS-Tumorviren nachweisbar sind, eine starke Wirksamkeit. Sie verlängern z.B. die mittlere Ueberlebensdauer von Mäusen nach Infektion mit Rauscher-Leukämie-Virus (RLV, ein RNS-Tumorvirus).\nBei den Versuchen mit Rauscher-Leukämie 4 Q (NIH) werden weibliche Balb/c-Mäuse (28 bis 34 Tage alt) mit 0,2 ml einer zehnfach mit Hanks Lösung verdünnten Virussuspension aus Milzmaterial von 4-6 Wochen vorher infizierten Mäusen infiziert. […] Die erste Verabreichung erfolgt 30 Minuten vor der Infektion, weitere Verabreichungen täglich einmal und fünfmal in der Woche während 4 Wochen. Als Kriterium für die Wirkung dient die Verlängerung der Ueberlebenszeit. Während bei den Kontrolltieren ab 30 Tagen nach der Infektion eine Leukämie mit leukämischen Blutzellen von über 50000/mm^3 gefunden werden können und die Tiere zu sterben beginnen, wird die Ueberlebenszeit der mit 125 mg/kg p.o. der Testsubstanz behandelten weiblichen Mäuse signifikant verlängert. […]"}}, "note": "Where two headings read alike, the source gives them in different places."}
{"compound": "CC1(C)CCc2c3c(c4ccccc4c2O1)OCO3", "note": "[Beispiel 1, 6,6-Dimethyl-4,5-dihydro-6H-(1,3-dioxolo)f3,41-naphthof1,2-blpyran]", "values": [{"measurement": "MTD at 168 h", "setting": "[1]; ip, single i.p. administration", "value": "> 1250", "unit": "mg/kg"}, {"measurement": "MTD at 168 h", "setting": "[1]; po, single p.o. administration", "value": "> 2500", "unit": "mg/kg"}, {"measurement": "Ueberlebenszeit", "setting": "[2]", "value": "60,9 Tage"}]}
